Laboratory results published in ChEMBL document CHEMBL4725243, “High-Throughput Screening for the Discovery of Enzyme Inhibitors” (J Med Chem, 2020).
pIC50: −log10 of the molar value.

Assays:
[1] = Inhibition of Mycobacterium tuberculosis kanamycin resistance enzyme Eis preincubated for 10 mins followed by AcCoA addition and measured after 5 mins at interval of 30 sec for 20 mins by UV-Vis assay
[2] = Inhibition of Mycobacterium tuberculosis kanamycin resistance enzyme Eis after 5 mins in presence of AcCoA by Ellman's reagent based assay

| Structure (SMILES) | pIC50 [1] | pIC50 [2] |
| --- | --- | --- |
| Cn1c2ccc(F)cc2c2nnc(SCCN3CCCCC3)nc21 | 7.52 |  |
| O=C(C[n+]1ccn2cccc2c1-c1ccccc1)c1ccccc1 |  | 7.19 |
| Cc1ccc(C(=O)C[n+]2ccn3cccc3c2-c2ccc(F)cc2)cc1 |  | 7.10 |
